Reference: ChEMBL document CHEMBL5729430, “ACLY inhibitors and uses thereof” (2022)

Molecular target: T1, ATP-citrate synthase (Homo sapiens, UniProt P53396)
T1 sequence (P53396 whole entry): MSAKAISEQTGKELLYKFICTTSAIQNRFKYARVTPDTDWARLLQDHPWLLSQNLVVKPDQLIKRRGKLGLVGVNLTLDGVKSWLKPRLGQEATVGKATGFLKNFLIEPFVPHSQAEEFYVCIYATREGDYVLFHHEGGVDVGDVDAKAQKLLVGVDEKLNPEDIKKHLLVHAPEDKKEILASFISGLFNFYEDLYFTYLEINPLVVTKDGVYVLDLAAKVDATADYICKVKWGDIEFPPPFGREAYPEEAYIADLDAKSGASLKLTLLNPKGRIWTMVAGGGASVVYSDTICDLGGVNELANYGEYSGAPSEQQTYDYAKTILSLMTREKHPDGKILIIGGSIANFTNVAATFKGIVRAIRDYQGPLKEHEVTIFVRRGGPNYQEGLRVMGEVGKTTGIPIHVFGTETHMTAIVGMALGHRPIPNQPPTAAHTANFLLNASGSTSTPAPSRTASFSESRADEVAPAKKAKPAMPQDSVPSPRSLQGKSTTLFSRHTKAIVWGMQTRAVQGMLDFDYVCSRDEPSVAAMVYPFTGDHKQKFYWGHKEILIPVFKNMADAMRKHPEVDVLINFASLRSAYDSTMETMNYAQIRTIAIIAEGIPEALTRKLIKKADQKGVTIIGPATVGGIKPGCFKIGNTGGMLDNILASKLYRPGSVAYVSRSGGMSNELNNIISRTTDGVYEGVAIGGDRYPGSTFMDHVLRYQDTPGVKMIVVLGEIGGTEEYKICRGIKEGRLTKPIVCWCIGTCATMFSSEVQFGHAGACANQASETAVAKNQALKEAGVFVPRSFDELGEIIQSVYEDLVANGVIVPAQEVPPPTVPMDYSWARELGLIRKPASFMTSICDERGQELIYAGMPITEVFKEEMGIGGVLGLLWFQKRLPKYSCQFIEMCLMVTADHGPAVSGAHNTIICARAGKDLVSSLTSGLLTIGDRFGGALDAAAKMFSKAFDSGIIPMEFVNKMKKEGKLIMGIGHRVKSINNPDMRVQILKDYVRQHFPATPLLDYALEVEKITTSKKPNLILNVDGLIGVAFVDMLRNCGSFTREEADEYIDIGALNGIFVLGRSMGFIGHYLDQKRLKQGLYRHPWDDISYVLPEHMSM
Assay: ADP-Glo Assay: Compounds of the present invention were evaluated in an ADP-GLO assay as follows:a) Dilute cpd 1:3 in succession in DMSO by hand for each cpds for 12 ptsb) Add 0.1 μL diluted cpd solution to assay plate, each dose with 2 replicatesc) Centrifuge 1000 RPM for 1 mind) Add 5 μL ACL working solution to 384-well assay plate, centrifuge 1000 RPM for 1 mine) Incubate at 25° C. for 15 minf) Add 5 μL substrate working solution to initiate reactiong) Final ACL reaction concentrations: 3 nM ACL, 15 μM ATP, 3 μM CoA, 300 μM Citrate, 0.01% Brij35, 4 mM DTT, 1% DMSO;h) Reference final conc: 30 uM starting Conc, 3× dilution, 11+0 points. Test cpd conc: 30/100 uM starting Conc, 3× dilution, 11+0 points.i) Incubate at 25° C. for 60 minj) Add 10 μL ADP Glo reagent, centrifuge 1000 RPM for 1 mink) Incubate at 25° C. for 40 minl) Add 20 μL kinase detection reagent, centrifuge 1000 RPM for 1 minm) Incubate at 25° C. for 40 minn) Read on Envision for US LUM as RLU.

Compound	IC50
O=S(=O)(c1cc(Cl)cc(Cl)c1)n1c(-c2cncnc2)cc2cc(Cl)ccc21	> 20 µM
O=C(O)c1cc2cc(Cl)ccc2n1S(=O)(=O)c1cc(Cl)cc(Cl)c1	< 0.5 µM
